Results from patent publication US6352989B1, “Nitrogenous heterocyclic derivatives and medicine thereof” (Eisai Co., Ltd., priority 1998, dated 2002).
pIC50: −log10 of the molar value.

What was measured:
PDE4D = PDE4D (Homo sapiens, UniProt Q08499); assay: Inhibitory action on PDE4 (homogenate of BHK cells expressing cloned human PDE4D, [3H]-cAMP hydrolysis); type: biochemical; details: average in triplicate measurements; 1 μM [3H]-cAMP substrate; read-out: PDE4 Inhibition IC50
Experimental: Inhibitory Action on PDE4: PDE4D was cloned from human placental mRNA by PCR techniques, and cDNA after an alternative spliced site (Mol. Cell. Biol., 13, 6558, 1993) was expressed in BHK cells. Two clones of BHK cells expressing PDE4 activity which was 100 or more times as high as endogenous PDE4 activity were obtained, and one of the clones was cultured in a large amount, and its homogenate was used as an enzyme source of PDE4.
50 mM Tris-HCl (pH 8.0), 0.1 mM EGTA, 0.1 mM MgCl2, 1 μM [^3H]-cGMP (100,000 dpm/tube) or 1 μM [^3H]-cAMP (100,000 dpm/tube) was added to the above homogenate, and 0.2 ml of the mixture was incubated at 30° C. for 10 to 20 minutes in the presence or absence of a test compound. The enzyme reaction was stopped by incubating the mixture at 95° C. for 1.5 minutes, and after cooling on ice, 50 μl nucleotidase (10 units/ml) was added thereto and incubated at 30° C. for 10 minutes. 550 μl of AG1-X2 resin slurry (H2O:resin=2:1) was added to the reaction mixture, then left at 4° C. for 10 minutes and centrifuged (10,000 rpm, 2.5 minutes, 4° C.), and 450 μl of the supernatant was measured for radioactivity.
The activity was compared in terms of IC50 (concentration of the compound at which 50% of the enzyme activity is inhibited) IC50 was determined by plotting of the concentration of cAMP as the substrate and the concentration of the compound on logarithmic graph paper. The results shown in Table 1 are the average in triplicate measurements. The test compound was first dissolved in DMSO and then diluted with the above-mentioned buffer for use.

ZDP rat = assay: Blood sugar-depressing action (ZDP rat); type: in vivo
Experimental: Blood Sugar-Depressing Action (ZDP rat): A test compound was suspended in 0.5% MC, and the suspension was orally administered to an animal once every day for 1 week. After the administration, the rat was allowed to fast for 4 hours, and blood was collected from the tail vein, added immediately to 0.6 M HClO4 (0.6 M HClO4=1:9), and centrifuged to give a supernatant which was then measured for glucose level by Glocose CII Test Wako Kit (Wako Pure Chemical Industries, Ltd., JP). In the table, values in the parentheses under the blood sugar level (mg/dl) indicate glucose levels relative to those (=100%) before the administration of the test compound.

Sequence of PDE4D (Q08499 303-809 limits assumed): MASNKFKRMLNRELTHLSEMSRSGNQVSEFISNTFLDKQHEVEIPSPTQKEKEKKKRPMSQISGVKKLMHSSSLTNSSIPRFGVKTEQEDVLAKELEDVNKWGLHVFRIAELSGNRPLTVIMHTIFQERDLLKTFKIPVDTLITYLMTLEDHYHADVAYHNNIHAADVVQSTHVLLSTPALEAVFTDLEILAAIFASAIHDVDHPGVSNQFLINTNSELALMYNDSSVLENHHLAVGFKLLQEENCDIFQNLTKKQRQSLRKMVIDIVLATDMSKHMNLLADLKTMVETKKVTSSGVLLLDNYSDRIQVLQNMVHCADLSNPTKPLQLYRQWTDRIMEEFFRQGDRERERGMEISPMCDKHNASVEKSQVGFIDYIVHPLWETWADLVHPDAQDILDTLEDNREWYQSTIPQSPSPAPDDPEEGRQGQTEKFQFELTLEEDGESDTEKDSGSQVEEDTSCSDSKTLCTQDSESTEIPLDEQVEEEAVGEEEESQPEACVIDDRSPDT

Compound	pIC50 (PDE4D)	melting point [°C]	Blood sugar level, Before the administration (ZDP rat; baseline before the administration of the test compound) [mg/dL]	Blood sugar level, After the continuous administration for 1 week (ZDP rat; oral, once every day for 1 week, 4 hours fast, tail vein blood) [mg/dL]	Glucose level relative to that (=100%) before the administration, after the continuous administration for 1 week (ZDP rat; oral, once every day for 1 week, value in parentheses)
CNc1nc(-c2cccc(NC(=O)c3ccc(OC)c(OC4CCCC4)c3)c2)c2cc(OC)c(OC)cc2n1 [Example 17, 4-[3-(3-Cyclopentyloxy-4-methoxybenzoylamino)phenyl]-6,7-dimethoxy-2-methylaminoquinazoline]	8.38	129 to 131			
CNc1nc(-c2cccc(NC(=O)c3ccc(O)cc3)c2)c2cc(OC)c(OC)cc2n1 [Example 21, 6,7-Dimethoxy-4-[3-(4-hydroxybenzoylamino)phenyl]-2-methylaminoquinazoline]	8.66	178 to 180			
CNc1nc(-c2cccc(NC(=O)c3ccc(N(C)C)nc3)c2)c2cc(OC)c(OC)cc2n1 [Example 30, 6,7-Dimethoxy-4-[3-(6-dimethylaminonicotinoylamino)phenyl]-2-methylaminoquinazoline]	8.59	149 to 151			
CNc1nc(-c2cccc(NC(=O)c3ccc(N4CCCC4)nc3)c2)c2cc(OC)c(OC)cc2n1 [Example 31, 6,7-Dimethoxy-2-methylamino-4-[3-(6-pyrrolidinonicotinoylamino)phenyl]quinazoline]	8.60	239 to 241			
CNc1nc(-c2cccc(NC(=O)c3ccnc(N4CCCC4)c3)c2)c2cc(OC)c(OC)cc2n1 [Example 34]	8.51	135 to 137			
CCOc1cc2nc(NC)nc(-c3cccc(-c4cncc(SC)c4)c3)c2cc1OCC [Example 61, 6,7-Diethoxy-2-methylamino-4-[3-(methylthio-3-pyridyl)phenyl]quinazoline]	9.22	105 to 107			
CCOc1cc2nc(NC)nc(-c3cccc(-c4cncc([S+](C)[O-])c4)c3)c2cc1OCC (stereo not drawn) [Example 62]	8.72	188 to 190	478.6 ± 24.0	369.1 ± 37.3	(77.1) %
CNc1nc(-c2cncc(Br)c2)c2cc(OC)c(OC)cc2n1 [Example 76, 4-(5-Bromo-3-pyridyl)-6,7-dimethoxy-2-methylaminoquinazoline]		228 to 230			
CNc1nc(-c2cncc(C#Cc3cccnc3)c2)c2cc(OC)c(OC)cc2n1 [Example 78, 6,7-Dimethoxy-2-methylamino-4-[5-[2-(3-pyridyl)ethynyl]-3-pyridyl]quinazoline]		208 to 211			
CNc1ccc(C#Cc2cncc(-c3nc(NC)nc4cc(OC)c(OC)cc34)c2)cn1 [Example 79, 6,7-Dimethoxy-2-methylamino-4-[5-[2-(6-methylamino-3-pyridyl)ethynyl]-3-pyridyl]quinazoline]		160 to 162			
CNc1nc(-c2cccc(NC(=O)c3ccccc3)c2)c2cc(OCc3ccccc3)c(OC)cc2n1 [Example 81, 4-(3-Benzoylaminophenyl)-6-benzyloxy-7-methoxy-2-methylaminoquinazoline]		204 to 206			
CNc1nc(-c2cccc(NC(=O)c3ccccc3)c2)c2cc(O)c(OC)cc2n1 [Example 82, 4-(3-Benzoylaminophenyl)-6-hydroxy-7-methoxy-2-methylaminoquinazoline]		145 to 147			

The next lines start with results.

pIC50 (PDE4D)	melting point [°C]	Compound	Blood sugar level, Before the administration (ZDP rat; baseline before the administration of the test compound) [mg/dL]	Blood sugar level, After the continuous administration for 1 week (ZDP rat; oral, once every day for 1 week, 4 hours fast, tail vein blood) [mg/dL]	Glucose level relative to that (=100%) before the administration, after the continuous administration for 1 week (ZDP rat; oral, once every day for 1 week, value in parentheses)
8.60	194 to 196	CNc1nc(-c2cccc(N3Cc4ccccc4C3)c2)c2cc(OC)c(OC)cc2n1 [Example 44, 6,7-Dimethoxy-4-[3-(2-isoindolynyl)phenyl]-2-methylaminoquinazoline]			
9.14	230 to 232	CNc1nc(-c2cccc(N3Cc4ccccc4C3=O)c2)c2cc(OC)c(OC)cc2n1 [Example 45, 6,7-Dimethoxy-4-[3-(1-oxo-2-isoindolynyl)phenyl]-2-methylaminoquinazoline]			
8.49	181 to 183	CNc1nc(-c2cccc(-c3cncc4ccccc34)c2)c2cc(OC)c(OC)cc2n1 [Example 51, 6,7-Dimethoxy-2-methylamino-4-[3-(4-isoquinolyl)phenyl]quinazoline]			
8.74	140 to 142	CNc1nc(-c2cccc(-c3ccc(SC)cc3)c2)c2cc(OC)c(OC)cc2n1 [Example 52, 6,7-Dimethoxy-2-methylamino-4-(4′-methylthio-3-biphenylyl)quinazoline]			
9.20	153 to 155	CNc1nc(-c2cccc(-c3ccc([S+](C)[O-])cc3)c2)c2cc(OC)c(OC)cc2n1 (stereo not drawn) [Example 53, 6,7-Dimethoxy-2-methylamino-4-(4′-methylsulfinyl-3-biphenylyl)quinazoline]			
8.77	195 to 197	CNc1nc(-c2cccc(-c3cccc(SC)c3)c2)c2cc(OC)c(OC)cc2n1 [Example 54, 6,7-Dimethoxy-2-methylamino-4-(3′-methylthio-3-biphenylyl)quinazoline]			
8.92	193 to 195	CNc1nc(-c2cccc(-c3cccc(-c4ccccc4)c3)c2)c2cc(OC)c(OC)cc2n1 [Example 56, 6,7-Dimethoxy-2-methylamino-4-(3′-phenyl-3-biphenylyl)quinazoline]			
8.55	184 to 186	CNc1nc(-c2cccc(-c3cncc(SC)c3)c2)c2cc(OC)c(OC)cc2n1 [Example 58, 6,7-Dimethoxy-2-methylamino-4-[3-(5-methylthio-3-pyridyl)phenyl]quinazoline]			
9.66	157 to 159	CCOc1cc2nc(NC)nc(-c3cccc(-c4cnc5ccccc5c4)c3)c2cc1OCC [Example 60, 6,7-Diethoxy-2-methylamino-4-[3-(3-quinolyl)phenyl]quinazoline]			
9.22	200 to 202	CNc1nc(-c2cccc(-c3cncc(-c4ccccc4)c3)c2)c2cc(OC)c(OC)cc2n1 [Example 63, 6,7-Dimethoxy-2-methylamino-4-[3-(5-phenyl-3-pyridyl)phenyl]quinazoline]			
9.72	188 to 190	CNc1nc(-c2cccc(-c3cnc4c(C)cccc4c3)c2)c2cc(OC)c(OC)cc2n1 [Example 64, 6,7-Dimethoxy-4-[3-(8-methyl-3-quinolyl)phenyl]-2-methylaminoquinazoline]			
8.60	102 to 104	CNc1nc(-c2cccc(C#Cc3ccccc3)c2)c2cc(OC)c(OC)cc2n1 [Example 65, 6,7-Dimethoxy-2-methylamino-4-[3-(2-phenylethynyl)phenyl]quinazoline]			
	116 to 118	CNc1nc(-c2cccc(OCc3ccccc3)c2)c2cc(OC)c(OC)cc2n1 [Example 72, 4-(3-Benzyloxyphenyl)-6,7-dimethoxy-2-methylaminoquinazoline]			
	157 to 159	CNc1nc(-c2cccc(Oc3ccccc3)c2)c2cc(OC)c(OC)cc2n1 [Example 73, 6,7-Dimethoxy-2-methylamino-4-(3-phenoxylphenyl)quinazoline]			
	201 to 203	CNc1nc(-c2ccc(-c3ccccc3)s2)c2cc(OC)c(OC)cc2n1 [Example 74, 6,7-Dimethoxy-2-methylamino-4-(5-phenyl-2-thienyl)quinazoline]			
	177 to 179	CNc1nc(-c2cncc(-c3ccccc3)c2)c2cc(OC)c(OC)cc2n1 [Example 75, 6,7-Dimethoxy-2-methylamino-4-(5-phenyl-3-pyridyl)quinazoline]			
	170 to 172	CNc1nc(-c2cncc(-c3ccc(SC)cc3)c2)c2cc(OC)c(OC)cc2n1 [Example 77, 6,7-Dimethoxy-2-methylamino-4-[5-(4-methylthiophenyl)-3-pyridyl]quinazoline]			
